Experimental data: US9833510B2, “Modified release solid or semi-solid dosage forms” (Johnson & Johnson Consumer Inc., priority 2007, dated 2017)
Counter-ions that a name gives are not always drawn.

Assays:
[1] = typical duration of action (period of therapeutic effect) of an immediate release dose, from product labeling; assay type: in vivo; conditions: for ATDAIRD (average therapeutic duration of action of an effective immediate release dose): average of typical duration range; for ATDAIRD: as restated, unit not given
Description: As used herein, “ATDAIRD” shall mean the average therapeutic duration of action of an effective immediate release dose” of a particular active ingredient. […] The therapeutic duration of action of a particular active ingredient can readily be determined from the dosing instructions in the labeling for immediate release products containing that particular active ingredient.

[2] = background statement; typically administered every 2 to 4 hours; cited from earlier work

Compound | ATDAIRD (average therapeutic duration of action of an effective immediate release dose) [1] [h] | therapeutically effective plasma concentration (duration) [2] | ATDAIRD [1]
CC(C)Cc1ccc(C(C)C(=O)O)cc1 (stereo not shown) [ibuprofen, 2-(4-isobutylphenyl)-propionic acid] | 5 |  | 
CC(C(=O)O)c1cccc(C(=O)c2ccccc2)c1 (stereo not shown) [ketoprofen] | 5 |  | 
COc1ccc2cc([C@H](C)C(=O)O)ccc2c1 [naproxen] | 10 |  | 
CNC[C@H](O)c1cccc(O)c1 [phenylephrine hydrochloride] |  | about 2.5 hours | 
CNC[C@H](O)c1cccc(O)c1 [phenylephrine, benzynemethanol, 3-hydroxy-α-[(methylamino)methyl]] | 3 |  | about 3
CN[C@@H](C)[C@@H](O)c1ccccc1 [psuedoephedrine] |  |  | about 3
